Laboratory results: ChEMBL document CHEMBL5634109, “Synthesis and mechanism of action of new purine derivatives against triple negative breast cancer” (Eur J Med Chem, 2023)
Active and inactive are the calls of the source. No cut-off for these calls is given here.

Columns and labels:
[1] = Hepatotoxicity in nude mouse at 10 mg/kg, ip measured for 3 days; format: toxicity, organism-based; conditions: in vivo, 72 h, time 3 day
MDA-MB-231 [2] = assay: Induction of apoptosis in human MDA-MB-231 cells assessed as apoptotic cells at 40 uM incubated for 24 hrs by Annexin V-FITC/PI staining based analysis; format: functional
MGC-803 = assay: Antiproliferative activity against human MGC-803 cells assessed as reduction in cell viability measured for 48 hrs by MTT assay; format: functional, cell-based; conditions: MGC-803, 48 h
MDA-MB-231 [3] = assay: Antiproliferative activity against human MDA-MB-231 cells assessed as reduction in viability at 10 uM incubated for 7.5 hrs by MTT assay; format: functional
[4] = Inhibition of PI3K/AKT/mTOR signaling pathway in human MDA-MB-231 cells assessed as decrease in AKT expression at 1 to 4 uM incubated for 6 hrs by Western blot analysis; format: cell-based; conditions: dose 1-4 µM
[5] = Inhibition of PI3K/AKT/mTOR signaling pathway in human MDA-MB-231 cells assessed as increase in p38 phosphorylation at 2 to 4 uM incubated for 6 hrs by Western blot analysis; format: cell-based; conditions: dose 2-4 µM
HUVEC = assay: Antiangiogenesis activity in HUVEC cells at 0.03 to 0.3 uM incubated for 12 hrs by microscopic analysis; format: functional, cell-based; conditions: Homo sapiens, dose 0.03-0.3 µM
[6] = Inhibition of PI3K/AKT/mTOR signaling pathway in human MDA-MB-231 cells assessed as decrease in EGFR expression at 1 to 4 uM incubated for 6 hrs by Western blot analysis; format: cell-based; conditions: dose 1-4 µM
[7] = target: Dual specificity protein kinase CLK2 (Homo sapiens, UniProt P49760); assay: Inhibition of CLK2 (unknown origin)
MDA-MB-231 [8] = assay: Induction of ROS generation in human MDA-MB-231 cells assessed as increase in intracellular ROS level at 40 uM incubated for 48 hrs by DCFH-DA staining based fluorescence microscopic analysis (Rvb=79.6%); format: functional
[9] = Inhibition of PI3K/AKT/mTOR signaling pathway in human MDA-MB-231 cells assessed as increase in p38 expression at 2 to 4 uM incubated for 6 hrs by Western blot analysis; format: cell-based; conditions: dose 2-4 µM
A549 = assay: Antiproliferative activity against human A549 cells assessed as reduction in cell viability measured for 48 hrs by MTT assay; format: functional, cell-based; conditions: A549, 48 h
[10] = Inhibition of PI3K/AKT/mTOR signaling pathway in human MDA-MB-231 cells assessed as decrease in mTOR expression at 1 to 4 uM incubated for 6 hrs by Western blot analysis; format: cell-based; conditions: dose 1-4 µM

Sequence of Dual specificity protein kinase CLK2 (P49760 whole entry): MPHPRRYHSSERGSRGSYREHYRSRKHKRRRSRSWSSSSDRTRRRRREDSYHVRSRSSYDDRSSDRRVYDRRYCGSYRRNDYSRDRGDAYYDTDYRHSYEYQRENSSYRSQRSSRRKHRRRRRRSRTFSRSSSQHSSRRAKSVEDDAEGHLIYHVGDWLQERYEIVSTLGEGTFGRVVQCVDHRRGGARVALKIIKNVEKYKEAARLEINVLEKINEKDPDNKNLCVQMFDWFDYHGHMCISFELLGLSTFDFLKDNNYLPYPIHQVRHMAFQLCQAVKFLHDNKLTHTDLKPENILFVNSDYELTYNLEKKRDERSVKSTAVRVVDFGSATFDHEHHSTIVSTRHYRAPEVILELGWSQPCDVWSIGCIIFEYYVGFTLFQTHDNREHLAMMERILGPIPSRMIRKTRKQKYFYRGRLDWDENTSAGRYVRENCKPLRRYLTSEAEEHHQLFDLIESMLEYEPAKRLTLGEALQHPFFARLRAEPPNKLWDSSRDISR

In the case of `OCCN1CCC(C2CCN(c3nc(NCc4ccc(F)c(Cl)c4)c4ncn(CC5CC5)c4n3)CC2)CC1`, the Activity [1] is reported as “Non-Toxic”, the Activity (MDA-MB-231 [2]) is reported as >95% and the IC50 (MGC-803) is reported as 3890 nM. The Activity (MDA-MB-231 [3]) was ~100%, the inhibition [4] was “Active” and the inhibition [5] was “Active”. For the same compound, the Activity (HUVEC) was “Active”, the inhibition [6] was “Active” and the IC50 [7] was 194 nM. The Activity (MDA-MB-231 [8]) was 80.7%, the inhibition [9] was “Active” and the IC50 (A549) was 2120 nM. The inhibition [10] was “Active”.
